Results published in ChEMBL document CHEMBL5252642, “Design and synthesis of naturally-inspired SARS-CoV-2 inhibitors” (RSC Med Chem, 2023).
Calls of active or inactive are those of the source. No cut-off for these calls is given here.

tested on: not listed separately; assay: Selectivity index, ratio of CC50 for human A549-ACE2 cells to EC50 for antiviral activity against SARS-CoV-2 Omicron BA1 variant infected human A549-ACE2 cells; format: toxicity; settings: read-out: Ratio CC50/EC50

First: Cc1ccc(S(=O)(=O)N2C[C@@]34CN(Cc5ccccc5)C[C@@H](O3)[C@H]3C(=O)CC[C@]2(C(C)C)[C@H]34)cc1
Second: Cc1ccc(S(=O)(=O)N2C[C@@]34CN(Cc5nc6ccccc6s5)C[C@@H](O3)[C@H]3C(=O)CC[C@]2(C(C)C)[C@H]34)cc1
The selectivity ratio of the first is lower: 0.7 for the first, 6.9 for the second.

Going from `COc1ccc(CCN2C[C@H]3O[C@]4(C2)CN(S(=O)(=O)c2ccc(C)cc2)[C@]2(C(C)C)C=C[C@H](O)[C@H]3[C@H]42)cc1` to `COc1ccc(CCN2C[C@H]3O[C@]4(C2)CN(S(=O)(=O)c2ccc(C)cc2)[C@]2(C(C)C)C=CC(=O)[C@H]3[C@H]42)cc1`, the selectivity ratio falls from 3.3 to 0.5.

Going from `Cc1ccc(S(=O)(=O)N2C[C@@]34CN(C(=O)c5ccc(F)cc5N)C[C@@H](O3)[C@@H]3[C@H]4[C@@]2(C(C)C)CC[C@@H]3O)cc1` to `Cc1ccc(S(=O)(=O)N2C[C@@]34CN(C(=O)c5cccs5)C[C@@H](O3)[C@@H]3[C@H]4[C@@]2(C(C)C)CC[C@@H]3O)cc1`, the selectivity ratio rises from 1.4 to greater than 3.

Compared with `Cc1ccc(S(=O)(=O)N2C[C@@]34CN(C)C[C@@H](O3)[C@H]3[C@@H](Oc5ncccn5)CC[C@]2(C(C)C)[C@H]34)cc1`, `Cc1ccc(S(=O)(=O)N2C[C@@]34CN(Cc5ccccc5)C[C@@H](O3)[C@H]3[C@@H](Oc5ncccn5)CC[C@]2(C(C)C)[C@H]34)cc1` is higher in selectivity ratio: 0.8 for the first, 1 for the second.

First: Cc1ccc(S(=O)(=O)N2C[C@@]34CN(Cc5ccccc5)C[C@@H](O3)[C@H]3C(=O)C=C[C@]2(C(C)C)[C@H]34)cc1
Second: Cc1ccc(S(=O)(=O)N2C[C@@]34CN(Cc5ccccc5)C[C@@H](O3)[C@@H]3[C@H]4[C@@]2(C(C)C)C=C[C@@H]3O)cc1
The selectivity ratio of the first is lower: 0.9 for the first, greater than 3 for the second.

Compared with `COc1cc(CN2C[C@H]3O[C@]4(C2)CN(S(=O)(=O)c2ccc(C)cc2)[C@]2(C(C)C)CC[C@H](O)[C@H]3[C@H]42)cc(OC)c1`, `COc1cc(CN2C[C@H]3O[C@]4(C2)CN(S(=O)(=O)c2ccc(C)cc2)[C@]2(C(C)C)CC[C@H](OCCCN(C)C)[C@H]3[C@H]42)cc(OC)c1` is higher in selectivity ratio: 2.3 for the first, 5.7 for the second.

`Cc1ccc(S(=O)(=O)N2C[C@@]34CN(CCc5c[nH]c6ccccc56)C[C@@H](O3)[C@@H]3[C@H]4[C@@]2(C(C)C)CC[C@@H]3O)cc1` and `Cc1ccc(S(=O)(=O)N2C[C@@]34CN(Cc5nc6ccccc6s5)C[C@@H](O3)[C@@H]3[C@H]4[C@@]2(C(C)C)CC[C@@H]3O)cc1` are the same in selectivity ratio: 1.6 for the first, 1.6 for the second.

tested on: SARS-CoV-2; assay: Antiviral activity against SARS-CoV-2 Omicron BA1 variant infected human A549-ACE2 cells assessed as inhibition of viral replication; format: functional, organism-based; settings: Severe acute respiratory syndrome coronavirus 2, Omicron BA1, A549-ACE2

`COc1ccc(CCN2C[C@H]3O[C@]4(C2)CN(S(=O)(=O)c2ccc(C)cc2)[C@]2(C(C)C)C=C[C@H](O)[C@H]3[C@H]42)cc1` and `COc1cc(CN2C[C@H]3O[C@]4(C2)CN(S(=O)(=O)c2ccc(C)cc2)[C@]2(C(C)C)CC[C@H](OCCCN(C)C)[C@H]3[C@H]42)cc(OC)c1` are within 1.5-fold of each other in EC50: 3.5 µM for the first, 4.4 µM for the second.

tested on: Severe acute respiratory syndrome coronavirus 2; assay: Inhibition of SARS-CoV2 main protease C145A mutant by measuring luciferase signal at 0.02 to 125 uM by reverse-nanoluciferase reporter assay; settings: dose 0.02-125 µM

For `COc1ccc(CCN2C[C@H]3O[C@]4(C2)CN(S(=O)(=O)c2ccc(C)cc2)[C@]2(C(C)C)C=C[C@H](O)[C@H]3[C@H]42)cc1`, the inhibition was “inactive”.
For `CC(C)C[C@H](NC(=O)OCc1ccccc1)C(=O)N[C@@H](C[C@@H]1CCNC1=O)C(O)S(=O)(=O)O` (stereo partly drawn), the inhibition was “inactive”.
